Test results taken from ChEMBL document CHEMBL5550152, “Design, synthesis and evaluation of novel prostate-specific membrane antigen-targeted aryl [18F]fluorosulfate PET tracers” (Bioorg Med Chem, 2024).

How the values were obtained:
[1] = Stability of the compound in PBS buffer measured after 4 hrs by radio-HPLC analysis; assay type: physicochemical
[2] = Drug uptake in human 22Rv1 cells at 3.7 10^-2MBq pretreated with 2-PMPA for 30 mins followed by compound addition and measured after 4 hr relative to control; assay type: ADME, cell-based; details: cwr22r
[3] = Drug uptake in human 22Rv1 cells at 3.7 10^-2MBq measured after 1 hr; assay type: ADME, cell-based; details: cwr22r
[4] = Drug uptake in human 22Rv1 cells at 3.7 10^-2MBq measured after 4 hrs relative to control; assay type: ADME, cell-based; details: cwr22r
[5] = Drug uptake in human 22Rv1 cells at 3.7 10^-2MBq pretreated with 2-PMPA for 30 mins followed by compound addition and measured after 1 hr; assay type: ADME, cell-based; details: cwr22r
[6] = Stability in mouse plasma measured after 4 hrs by radio-HPLC analysis; assay type: ADME, cell-free
[7] = Drug uptake in mouse tumor xenografted with human 22Rv1 cells at 7.4 MBq, iv measured after 2 hrs by PET imaging analysis relative to control; assay type: ADME, organism-based, Neoplasm, CWR22R; details: in vivo

In the case of O=C(O)CC[C@H](NC(=O)N[C@@H](CCCCNC(=O)[C@H](Cc1ccc2ccccc2c1)NC(=O)c1ccc(CNC(=O)[C@H](CCC(=O)O)NC(=O)[C@H](CCC(=O)O)NC(=O)c2ccc(OS(=O)(=O)[18F])cc2)cc1)C(=O)O)C(=O)O, the Stability [1] is reported as “Stable”, the Drug uptake [2] is reported as 0.14% and the Drug uptake [3] is reported as “Not Active”. The Drug uptake [4] was 0.65%, the Drug uptake [5] was “Not Active” and the Stability [6] was “Stable”. The Drug uptake [7] was 2.68 % ID/g.
